Data taken from patent US20260226092A1, “COCRYSTALS OF CORTEXOLONE 17-PROPIONATE AND METHODS FOR THEIR PREPARATION” (Farmabios S.p.A., priority 2023, published 2026).
Values after ≈ are worked out from the molar mass of the structure shown. Where two headings read alike, the source gives them in different places.

How the values were obtained:
[1] = Wettability analysis (contact angle, ultrapure water); format: physicochemical; conditions: room temperature
Experimental: Wettability analysis has been carried out by a contact angle meter (Kyowa Interface Science, made in Japan, model: DMe-211Plus) with FAMAS software for data processing.
The contact angle of cocrystals (Form J and G) and Form III (reference) was evaluated at room temperature using ultrapure water (by MilliQ system). Cocrystals (Form J and G) and Form III were previously grounded with a mortar and pestle to limit the effect of particle sizes. Then, approximately 27 mg of each sample were collected on a glass substrate limited to a Teflon O-ring (6.0 mm diameter) and gently leveled by a spatula. The contact time between the drop and sample was set at 9 s and the aqueous falling volume was 2.0 μl.

[2] = Kinetic solubility study in aqueous buffers (HPLC of mother liquors); format: physicochemical; conditions: for solubility at 30 min: aqueous buffer, thermodynamic from solid, read-out: highest solubility; for Conc 1st duplicate / Conc 2nd duplicate / Conc Average: room temperature
Experimental: Each sample was analyzed in duplicate. Cocrystals form J and G as well as the crystalline form III were previously grounded with mortar and pestle to reduce the particle size effects. […] At scheduled timing (0.5 h, 1 h, 3 h, 5 h, 24 h), aliquots of approximately 3 ml were withdrawn and filtered. Mother liquors were analyzed in triplicate by HPLC, and their pH values checked by pH me[…]/conductometer, Methron).

For `CCC(=O)O[C@]1(C(=O)CO)CC[C@H]2[C@@H]3CCC4=CC(=O)CC[C@]4(C)[C@H]3CC[C@@]21C` [Form III, cortexolone 17α-propionate], which “Wettability character (hydrophilic: contact angle <90 degrees; hydrophobic: >90 degrees)” value [1] is on record?
The value was “hydrophilic”.

What about the “Contact angle Sample 1” value ([1]; 2.0 μl drop, contact time 9 s) of the same compound?
The value was 76.8 degrees.

And the “Contact angle Sample 2” value ([1]; 2.0 μl drop, contact time 9 s)?
Its value is 75.0 degrees.

What about the “Contact angle Sample 3” value ([1]; 2.0 μl drop, contact time 9 s) of the same compound?
Its value is 81.2 degrees.

What about the “Contact angle Average” value ([1]; average of samples 1-3) of the same compound?
Its value is 77.67 degrees.

What about the solubility at 30 min ([2]; acetate buffer, pH 5.1, room temperature, maximum over 0.5-24 h (Form J and G after 1 h, Form III after 30 min)) of the same compound?
The solubility at 30 min was 18.07 ± 0.06 µg/mL (≈ 44.9 µM).

And the “dissolution (in words)” value ([2]; pH 5.1, room temperature)?
Its value is “faster than the one at pH 6.0”.

What about the “Conc 1st duplicate” value ([2]; pH 5.1 buffer, 30 min) of the same compound?
The value was 18070 ng/mL.

And the “Conc 2nd duplicate” value ([2]; pH 5.1 buffer, 30 min)?
Its value is 18120 ng/mL.

What about the “Conc Average” value ([2]; pH 5.1 buffer, 30 min) of the same compound?
Its value is 18070 ng/mL.

And the “Conc 1st duplicate” value ([2]; pH 5.1 buffer, 1 h)?
The value was 10020 ng/mL.

What about the “Conc 2nd duplicate” value ([2]; pH 5.1 buffer, 1 h) of the same compound?
The value was 10000 ng/mL.

And the “Conc Average” value ([2]; pH 5.1 buffer, 1 h)?
The value was 10010 ng/mL.

What about the “Conc 1st duplicate” value ([2]; pH 5.1 buffer, 3 h) of the same compound?
The value was 16960 ng/mL.

And the “Conc 2nd duplicate” value ([2]; pH 5.1 buffer, 3 h)?
The value was 16820 ng/mL.

What about the “Conc Average” value ([2]; pH 5.1 buffer, 3 h) of the same compound?
The value was 16890 ng/mL.

What about the “Conc 1st duplicate” value ([2]; pH 5.1 buffer, 5 h) of the same compound?
Its value is 14680 ng/mL.

And the “Conc 2nd duplicate” value ([2]; pH 5.1 buffer, 5 h)?
The value was 15020 ng/mL.

And the “Conc Average” value ([2]; pH 5.1 buffer, 5 h)?
The value was 14770 ng/mL.

And the “Conc 1st duplicate” value ([2]; pH 5.1 buffer, 24 h)?
Its value is 2590 ng/mL.

And the “Conc 2nd duplicate” value ([2]; pH 5.1 buffer, 24 h)?
Its value is 2600 ng/mL.

What about the “Conc Average” value ([2]; pH 5.1 buffer, 24 h) of the same compound?
Its value is 2600 ng/mL.

What about the “Conc 1st duplicate” value ([2]; pH 6.0 buffer, 30 min) of the same compound?
Its value is 4380 ng/mL.

What about the “Conc 2nd duplicate” value ([2]; pH 6.0 buffer, 30 min) of the same compound?
Its value is 4370 ng/mL.

And the “Conc Average” value ([2]; pH 6.0 buffer, 30 min)?
The value was 4380 ng/mL.

What about the “Conc 1st duplicate” value ([2]; pH 6.0 buffer, 1 h) of the same compound?
The value was 3580 ng/mL.

And the “Conc 2nd duplicate” value ([2]; pH 6.0 buffer, 1 h)?
The value was 3560 ng/mL.

What about the “Conc Average” value ([2]; pH 6.0 buffer, 1 h) of the same compound?
Its value is 3570 ng/mL.

What about the “Conc 1st duplicate” value ([2]; pH 6.0 buffer, 3 h) of the same compound?
The value was 11150 ng/mL.

And the “Conc 2nd duplicate” value ([2]; pH 6.0 buffer, 3 h)?
The value was 10970 ng/mL.

What about the “Conc Average” value ([2]; pH 6.0 buffer, 3 h) of the same compound?
Its value is 11060 ng/mL.

And the “Conc 1st duplicate” value ([2]; pH 6.0 buffer, 5 h)?
The value was 1920 ng/mL.

What about the “Conc 2nd duplicate” value ([2]; pH 6.0 buffer, 5 h) of the same compound?
Its value is 1920 ng/mL.

What about the “Conc Average” value ([2]; pH 6.0 buffer, 5 h) of the same compound?
Its value is 1920 ng/mL.

What about the “Conc 1st duplicate” value ([2]; pH 6.0 buffer, 24 h) of the same compound?
The value was 4020 ng/mL.

What about the “Conc 2nd duplicate” value ([2]; pH 6.0 buffer, 24 h) of the same compound?
The value was 4030 ng/mL.

And the “Conc Average” value ([2]; pH 6.0 buffer, 24 h)?
Its value is 4020 ng/mL.

And the solubility at 30 min ([2]; phosphate buffer, pH 6.0, room temperature, maximum over 0.5-24 h (Form J and Form III 30 min, Form G after 1 h))?
Its solubility at 30 min is 15.97 ± 0.04 µg/mL (≈ 39.7 µM).
